Data taken from PubChem BioAssay AID258 (DTP/NCI, 2004).
Values joined by “and” are separate entries in the source; they are usually repeats but may differ in a detail not shown here. Equal entries are not always repeated. Toxic doses and inconclusive results are not listed.

Tested on: CD2F1 mice, L1210 leukemia sc, survival T/C
Experiment: NCI In Vivo Anticancer Drug Screen. Data for tumor model L1210 Leukemia (subcutaneous) in CD2F1 (CDF1) mice
Conditions: endpoint: median survival time, higher = longer survival
Method in brief: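 T/C ratio: treated-group survival or tumor size over vehicle-control group measurement, in mice carrying transplanted tumors.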

What does the source list for Nc1nc(=S)c2ncn(C3OC(CO)C(O)C3O)c2[nH]1 (configuration not stated)?
T/C (dose: 6.0 mg/kg/injection, schedule: Q01DX Z (sc), vehicle: other): 177 % of control; T/C (dose: 10.1 mg/kg/injection, schedule: Q01DX Z (sc), vehicle: other): 183 % of control; T/C (dose: 16.9 mg/kg/injection, schedule: Q01DX Z (sc), vehicle: other): 155 % of control; T/C (dose: 28.1 mg/kg/injection, schedule: Q01DX Z (sc), vehicle: other): 161 % of control; T/C (dose: 46.8 mg/kg/injection, schedule: Q01DX Z (sc), vehicle: other): 155 % of control; T/C (dose: 65.0 mg/kg/injection, schedule: Q01DX Z (sc), vehicle: other): 123 % of control; T/C (dose: 108.0 mg/kg/injection, schedule: Q01DX Z (sc), vehicle: other): 123 % of control; T/C (dose: 180.0 mg/kg/injection, schedule: Q01DX Z (sc), vehicle: other): 114 % of control; T/C (dose: 300.0 mg/kg/injection, schedule: Q01DX Z (sc), vehicle: other): 104 % of control

For O=C(NO)c1cc(O)c(O)c(O)c1, which T/C (dose: 25.0 mg/kg/injection, schedule: Q01DX009 (ip), vehicle: distilled water + Tween-80) is on record?
The T/C was 97 % of control and 100 % of control.

And the T/C (dose: 50.0 mg/kg/injection, schedule: Q01DX009 (ip), vehicle: distilled water + Tween-80)?
The T/C was 104 % of control.

And the T/C (dose: 100.0 mg/kg/injection, schedule: Q01DX009 (ip), vehicle: distilled water + Tween-80)?
The T/C was 100 % of control and 102 % of control.

And the T/C (dose: 200.0 mg/kg/injection, schedule: Q01DX009 (ip), vehicle: distilled water + Tween-80)?
The T/C was 124 % of control.

What about the T/C (dose: 400.0 mg/kg/injection, schedule: Q01DX009 (ip), vehicle: distilled water + Tween-80) of the same compound?
The T/C was 90 % of control.

With CN(C)c1nc(N(C)C)nc(N(C)C)n1 as the compound, how does the T/C (dose: 19.0 mg/kg/injection, schedule: Q01DX009 (ip), vehicle: saline with Tween-80) read?
Its T/C is 97 % of control.

What about the T/C (dose: 20.0 mg/kg/injection, schedule: Q01DX009 (ip), vehicle: saline with Tween-80) of the same compound?
Its T/C is 106 % of control.

What about the T/C (dose: 20.0 mg/kg/injection, schedule: Q01DX009 (sc), vehicle: saline) of the same compound?
The T/C was 107 % of control.

What about the T/C (dose: 37.5 mg/kg/injection, schedule: Q01DX009 (ip), vehicle: saline with Tween-80) of the same compound?
The T/C was 91 % of control.

And the T/C (dose: 40.0 mg/kg/injection, schedule: Q01DX009 (ip), vehicle: saline with Tween-80)?
The T/C was 102 % of control.

What about the T/C (dose: 40.0 mg/kg/injection, schedule: Q01DX009 (sc), vehicle: saline) of the same compound?
The T/C was 100 % of control.

What about the T/C (dose: 75.0 mg/kg/injection, schedule: Q01DX009 (ip), vehicle: saline with Tween-80) of the same compound?
Its T/C is 104 % of control.

What about the T/C (dose: 80.0 mg/kg/injection, schedule: Q01DX009 (ip), vehicle: saline with Tween-80) of the same compound?
The T/C was 106 % of control.

And the T/C (dose: 80.0 mg/kg/injection, schedule: Q01DX009 (sc), vehicle: saline)?
The T/C was 100 % of control.

And the T/C (dose: 150.0 mg/kg/injection, schedule: Q01DX009 (ip), vehicle: saline with Tween-80)?
Its T/C is 91 % of control.

And the T/C (dose: 160.0 mg/kg/injection, schedule: Q01DX009 (ip), vehicle: saline with Tween-80)?
The T/C was 109 % of control and 110 % of control.

And the T/C (dose: 160.0 mg/kg/injection, schedule: Q01DX009 (sc), vehicle: saline)?
Its T/C is 113 % of control.

And the T/C (dose: 240.0 mg/kg/injection, schedule: Q01DX009 (ip), vehicle: saline with Tween-80)?
The T/C was 90 % of control.

Which T/C (dose: 2.9 mg/kg/injection, schedule: Q01DX009 (ip), vehicle: saline) does the source give for COc1cccc2c1C(=O)c1c(O)c3c(c(O)c1C2=O)CC(O)(C(=O)CO)CC3OC1CC(N)C(O)C(C)O1 (configuration not stated) here?
Its T/C is 104 % of control.

What about the T/C (dose: 5.8 mg/kg/injection, schedule: Q01DX009 (ip), vehicle: saline) of the same compound?
Its T/C is 105 % of control.

What about the T/C (dose: 11.7 mg/kg/injection, schedule: Q01DX009 (ip), vehicle: saline) of the same compound?
Its T/C is 106 % of control.

What about the T/C (dose: 23.4 mg/kg/injection, schedule: Q01DX009 (ip), vehicle: saline) of the same compound?
Its T/C is 115 % of control.

What about the T/C (dose: 46.8 mg/kg/injection, schedule: Q01DX009 (ip), vehicle: saline) of the same compound?
Its T/C is 111 % of control.

With O=NN(CCCl)C(=O)NCCCl as the compound, how does the T/C (dose: 0.25 mg/kg/injection, schedule: Q01DX009 (ip), vehicle: saline + alcohol) read?
Its T/C is 108 % of control.

What about the T/C (dose: 0.25 mg/kg/injection, schedule: Q01DX009 (sc), vehicle: saline + alcohol) of the same compound?
Its T/C is 100 % of control and 107 % of control.

And the T/C (dose: 0.5 mg/kg/injection, schedule: Q01DX009 (ip), vehicle: saline + alcohol)?
The T/C was 121 % of control.

And the T/C (dose: 0.5 mg/kg/injection, schedule: Q01DX009 (sc), vehicle: saline + alcohol)?
Its T/C is 112 % of control and 98 % of control.

And the T/C (dose: 0.88 mg/kg/injection, schedule: Q01DX009 (ip), vehicle: saline + alcohol)?
The T/C was 121 % of control.

What about the T/C (dose: 0.9 mg/kg/injection, schedule: Q01DX009 (ip), vehicle: saline + alcohol) of the same compound?
Its T/C is 112 % of control.

And the T/C (dose: 1.0 mg/kg/injection, schedule: Q01DX009 (sc), vehicle: saline + alcohol)?
The T/C was 108 % of control and 124 % of control.

And the T/C (dose: 1.8 mg/kg/injection, schedule: Q01DX009 (ip), vehicle: saline + alcohol)?
Its T/C is 120 % of control.

What about the T/C (dose: 1.8 mg/kg/injection, schedule: Q01DX Z (sc), vehicle: saline) of the same compound?
Its T/C is 243 % of control.

What about the T/C (dose: 2.0 mg/kg/injection, schedule: Q01DX009 (ip), vehicle: saline + alcohol) of the same compound?
The T/C was 159 % of control and 192 % of control.

And the T/C (dose: 3.0 mg/kg/injection, schedule: Q01DX Z (sc), vehicle: saline)?
The T/C was 512 % of control.

And the T/C (dose: 4.0 mg/kg/injection, schedule: Q01DX009 (ip), vehicle: saline + alcohol)?
Its T/C is 187 % of control and 219 % of control.

And the T/C (dose: 5.0 mg/kg/injection, schedule: Q01DX Z (sc), vehicle: saline)?
Its T/C is 300 % of control.

What about the T/C (dose: 5.0 mg/kg/injection, schedule: Q07DX Z (sc), vehicle: saline) of the same compound?
The T/C was 150 % of control.

And the T/C (dose: 5.3 mg/kg/injection, schedule: Q01DX009 (sc), vehicle: saline + alcohol)?
Its T/C is 314 % of control.

And the T/C (dose: 5.33 mg/kg/injection, schedule: Q01DX009 (ip), vehicle: saline + alcohol)?
Its T/C is 222 % of control.

And the T/C (dose: 5.33 mg/kg/injection, schedule: Q01DX009 (sc), vehicle: saline + alcohol)?
The T/C was 203 % of control.

What about the T/C (dose: 7.0 mg/kg/injection, schedule: Q01DX009 (ip), vehicle: saline + alcohol) of the same compound?
Its T/C is 167 % of control and 184 % of control.

And the T/C (dose: 8.0 mg/kg/injection, schedule: Q01DX009 (ip), vehicle: saline + alcohol)?
Its T/C is 179 % of control and 243 % of control.

And the T/C (dose: 8.4 mg/kg/injection, schedule: Q01DX001 (sc), vehicle: saline)?
The T/C was 212 % of control.

What about the T/C (dose: 8.4 mg/kg/injection, schedule: Q01DX017 (ip), vehicle: none) of the same compound?
The T/C was 333 % of control.

And the T/C (dose: 8.4 mg/kg/injection, schedule: Q01DX017 (sc), vehicle: saline)?
The T/C was 316 % of control.

And the T/C (dose: 8.4 mg/kg/injection, schedule: Q01DX Z (sc), vehicle: saline)?
The T/C was 256 % of control.

And the T/C (dose: 8.4 mg/kg/injection, schedule: Q07DX Z (sc), vehicle: saline)?
The T/C was 293 % of control.

And the T/C (dose: 12.0 mg/kg/injection, schedule: Q01DX009 (sc), vehicle: saline + alcohol)?
The T/C was 151 % of control and 205 % of control.

What about the T/C (dose: 14.0 mg/kg/injection, schedule: Q01DX001 (sc), vehicle: saline) of the same compound?
Its T/C is 300 % of control.

And the T/C (dose: 14.0 mg/kg/injection, schedule: Q01DX009 (ip), vehicle: saline + alcohol)?
The T/C was 116 % of control.

What about the T/C (dose: 14.0 mg/kg/injection, schedule: Q01DX017 (ip), vehicle: none) of the same compound?
The T/C was 588 % of control.

And the T/C (dose: 14.0 mg/kg/injection, schedule: Q01DX017 (sc), vehicle: saline)?
The T/C was 388 % of control.

And the T/C (dose: 14.0 mg/kg/injection, schedule: Q01DX Z (sc), vehicle: saline)?
Its T/C is 212 % of control.

What about the T/C (dose: 14.0 mg/kg/injection, schedule: Q07DX Z (sc), vehicle: saline) of the same compound?
The T/C was 600 % of control.

And the T/C (dose: 16.0 mg/kg/injection, schedule: Q01DX009 (sc), vehicle: saline + alcohol)?
Its T/C is 160 % of control.

And the T/C (dose: 23.0 mg/kg/injection, schedule: Q01DX001 (sc), vehicle: saline)?
Its T/C is 343 % of control.

And the T/C (dose: 23.0 mg/kg/injection, schedule: Q01DX017 (ip), vehicle: none)?
Its T/C is 731 % of control.

What about the T/C (dose: 23.0 mg/kg/injection, schedule: Q01DX017 (sc), vehicle: saline) of the same compound?
Its T/C is 733 % of control.

What about the T/C (dose: 23.0 mg/kg/injection, schedule: Q07DX Z (sc), vehicle: saline) of the same compound?
The T/C was 331 % of control.

What about the T/C (dose: 32.0 mg/kg/injection, schedule: Q01DX009 (ip), vehicle: saline + alcohol) of the same compound?
Its T/C is 98 % of control.

What about the T/C (dose: 32.0 mg/kg/injection, schedule: Q01DX009 (sc), vehicle: saline + alcohol) of the same compound?
The T/C was 102 % of control and 124 % of control.

What about the T/C (dose: 39.0 mg/kg/injection, schedule: Q01DX001 (sc), vehicle: saline) of the same compound?
Its T/C is 243 % of control.

What about the T/C (dose: 39.0 mg/kg/injection, schedule: Q01DX017 (ip), vehicle: none) of the same compound?
The T/C was 511 % of control.

And the T/C (dose: 39.0 mg/kg/injection, schedule: Q01DX017 (sc), vehicle: saline)?
Its T/C is 500 % of control.

What about the T/C (dose: 39.0 mg/kg/injection, schedule: Q07DX Z (sc), vehicle: saline) of the same compound?
The T/C was 200 % of control.

And the T/C (dose: 65.0 mg/kg/injection, schedule: Q01DX001 (sc), vehicle: saline)?
Its T/C is 162 % of control.

With O=C(O)c1cc(=O)[nH]c(=O)[nH]1 as the compound, how does the T/C (dose: 300.0 mg/kg/injection, schedule: Q01DX Z (sc), vehicle: saline) read?
Its T/C is 100 % of control.

COc1cc([C@@H]2c3cc4c(cc3[C@H](OC(C)=O)[C@H]3COC(=O)[C@@H]23)OCO4)cc(OC)c1OC was tested. Which T/C (dose: 500.0 mg/kg/injection, schedule: Q01DX Z (sc), vehicle: methylcellulose (MC)) did it give?
The T/C was 100 % of control.
